Experimental data: ChEMBL document CHEMBL3112568, “Synthesis, antifungal activities and molecular docking studies of novel 2-(2,4-difluorophenyl)-2-hydroxy-3-(1H-1,2,4-triazol-1-yl)propyl dithiocarbamates” (2014)
In brackets after ≈: the same amount, converted by molar mass.

How the values were obtained:
Type in all cases: functional
Candida albicans [1] = assay: Antifungal activity against Candida albicans Y0109 after 24 hrs by micro-broth dilution method; conditions: Y0109, 24 h
Cryptococcus neoformans = assay: Antifungal activity against Cryptococcus neoformans after 72 hrs by micro-broth dilution method
Nakaseomyces glabratus = assay: Antifungal activity against Candida glabrata by micro-broth dilution method
Candida albicans [2] = assay: Antifungal activity against Candida albicans SC5314 after 24 hrs by micro-broth dilution method; conditions: SC5314, 24 h
Aspergillus fumigatus = assay: Antifungal activity against Aspergillus fumigatus by micro-broth dilution method
Candida parapsilosis = assay: Antifungal activity against Candida parapsilosis by micro-broth dilution method; conditions: Lodderomyces parapsilosis
Trichophyton rubrum = assay: Antifungal activity against Trichophyton rubrum by micro-broth dilution method
Nannizzia gypsea = assay: Antifungal activity against Microsporum gypseum by micro-broth dilution method

CCC(C)n1ncn(-c2ccc(N3CCN(c4ccc(OCC5COC(Cn6cncn6)(c6ccc(Cl)cc6Cl)O5)cc4)CC3)cc2)c1=O (centres undefined) [ITRACONAZOLE]
MIC80 (Candida albicans [1]): 8 µg/mL (≈ 11.3 µM)
MIC80 (Cryptococcus neoformans): 4 µg/mL (≈ 5.67 µM)
MIC80 (Nakaseomyces glabratus): 1 µg/mL (≈ 1.42 µM)
MIC80 (Candida albicans [2]): 4 µg/mL (≈ 5.67 µM)
MIC80 (Aspergillus fumigatus): 8 µg/mL (≈ 11.3 µM)
MIC80 (Candida parapsilosis): 8 µg/mL (≈ 11.3 µM)
MIC80 (Trichophyton rubrum): 4 µg/mL (≈ 5.67 µM)
MIC80 (Nannizzia gypsea): 4 µg/mL (≈ 5.67 µM)

CC(=O)N1CCN(c2ccc(OCC3COC(Cn4ccnc4)(c4ccc(Cl)cc4Cl)O3)cc2)CC1 (centres undefined) [KETOCONAZOLE]
MIC80 (Candida albicans [1]): 0.25 µg/mL (≈ 0.47 µM)
MIC80 (Cryptococcus neoformans): 0.25 µg/mL (≈ 0.47 µM)
MIC80 (Nakaseomyces glabratus): 0.5 µg/mL (≈ 0.941 µM)
MIC80 (Candida albicans [2]): ≤ 0.125 µg/mL
MIC80 (Aspergillus fumigatus): 4 µg/mL (≈ 7.53 µM)
MIC80 (Candida parapsilosis): 0.5 µg/mL (≈ 0.941 µM)
MIC80 (Trichophyton rubrum): 0.125 µg/mL (≈ 0.235 µM)
MIC80 (Nannizzia gypsea): 1 µg/mL (≈ 1.88 µM)

CN(C/C=C/C#CC(C)(C)C)Cc1cccc2ccccc12 [TERBINAFINE]
MIC80 (Candida albicans [1]): 16 µg/mL (≈ 54.9 µM)
MIC80 (Cryptococcus neoformans): 0.25 µg/mL (≈ 0.858 µM)
MIC80 (Nakaseomyces glabratus): 2 µg/mL (≈ 6.86 µM)
MIC80 (Candida albicans [2]): 4 µg/mL (≈ 13.7 µM)
MIC80 (Aspergillus fumigatus): 0.25 µg/mL (≈ 0.858 µM)
MIC80 (Candida parapsilosis): 1 µg/mL (≈ 3.43 µM)
MIC80 (Trichophyton rubrum): 0.0625 µg/mL (≈ 0.214 µM)
MIC80 (Nannizzia gypsea): 0.0625 µg/mL (≈ 0.214 µM)
